The text below walks through data of US20250066363A1, “Bicyclic DGK Inhibitors” (Incyte Corporation, priority 2023, published 2025).

SMILES strings stand for the structures. Bounds are passed on as bounds.

One assay addresses DGKα (Homo sapiens (Human), UniProt P23743). The assay can be described thus: In vitro DGKα inhibition assay (ADP-Glo). It is filed as biochemical. Conditions: first column of Table A. How it is done: (§1) The DGKα and DGKζ biochemical reactions were performed using His-tagged human recombinant enzymes (Signal Chem, DGKα, #D21-10BH; DGKζ, #D30-1OH)) and DLG (Dilauroyl-sn-glycerol) lipid substrate (Signal Chem, #D430-59). ADP-Glo assay was performed using ADP-Glo™ kinase Assay kit (Promega, #V9104). The reactions were carried out in assay buffer containing 40 mM Tris, pH 7.5, 0.1% CHAPS, 0.1% Prionex, 40 mM NaCl, 5 mM MgCl2, 1 mM CaCl2, and 1 mM DTT. DGKα reactions contained 0.1 nM DGKα, 50 μM ATP, and 20 μM DLG. And DGKζ reactions contained 0.4 nM DGKζ, 30 μM ATP, and 20 μM DLG.
(§2) For compound inhibition studies, 40 nL test compound in DMSO was added to wells of white polystyrene plates in 384-well (Greiner, #784075) or 1536-well format (Greiner, #782075). Compounds were added with top concentration of 2 mM with 11 point, 3-fold dilution series. Enzyme solution (contains 2× DGK enzyme concentration in 1× assay buffer) was added to the plate in 2 μL/well volume, followed by 2 μL/well of substrate solution (contains 2× concentration of ATP and DLG substrate in 1× assay buffer). Plates were then centrifuged for 1 min at 1200 RPM and sealed or lidded. For 4 μL reaction volume, test compounds were therefore diluted 100× to final top concentration of 20 μM. After 90 minute incubation, reactions were quenched by addition of 2 μL/well Promega ADP-Glo Reagent, followed by centrifugation and lidding. After 60 min incubation, 2 μL/well Promega Kinase Detection Reagent was added, plates centrifuged, and incubated for 30 min. Plates were then read using Luminescence method on BMG PHERAstar FSX plate reader. Percent inhibition was calculated and IC50s were determined using 4-parameter fit in Genedata Screener. Labcyte Echo acoustic dispenser was used for compound addition, and Formulatrix Tempest liquid handler was used for all reagent dispenses.
Background: In ADP-Glo the light output rises with the ADP produced.

The target of the next assay is DGKζ (Homo sapiens (Human), UniProt Q13574). The assay can be described thus: In vitro DGKζ inhibition assay (ADP-Glo). It counts as biochemical. Conditions: second column of Table A, head printed DGKα, presumably DGKζ; His-tagged human recombinant DGKζ 0.4 nM, 30 μM ATP, 20 μM DLG. As for the experimental part: as §1, §2
Sequence of DGKζ (Q13574 whole entry): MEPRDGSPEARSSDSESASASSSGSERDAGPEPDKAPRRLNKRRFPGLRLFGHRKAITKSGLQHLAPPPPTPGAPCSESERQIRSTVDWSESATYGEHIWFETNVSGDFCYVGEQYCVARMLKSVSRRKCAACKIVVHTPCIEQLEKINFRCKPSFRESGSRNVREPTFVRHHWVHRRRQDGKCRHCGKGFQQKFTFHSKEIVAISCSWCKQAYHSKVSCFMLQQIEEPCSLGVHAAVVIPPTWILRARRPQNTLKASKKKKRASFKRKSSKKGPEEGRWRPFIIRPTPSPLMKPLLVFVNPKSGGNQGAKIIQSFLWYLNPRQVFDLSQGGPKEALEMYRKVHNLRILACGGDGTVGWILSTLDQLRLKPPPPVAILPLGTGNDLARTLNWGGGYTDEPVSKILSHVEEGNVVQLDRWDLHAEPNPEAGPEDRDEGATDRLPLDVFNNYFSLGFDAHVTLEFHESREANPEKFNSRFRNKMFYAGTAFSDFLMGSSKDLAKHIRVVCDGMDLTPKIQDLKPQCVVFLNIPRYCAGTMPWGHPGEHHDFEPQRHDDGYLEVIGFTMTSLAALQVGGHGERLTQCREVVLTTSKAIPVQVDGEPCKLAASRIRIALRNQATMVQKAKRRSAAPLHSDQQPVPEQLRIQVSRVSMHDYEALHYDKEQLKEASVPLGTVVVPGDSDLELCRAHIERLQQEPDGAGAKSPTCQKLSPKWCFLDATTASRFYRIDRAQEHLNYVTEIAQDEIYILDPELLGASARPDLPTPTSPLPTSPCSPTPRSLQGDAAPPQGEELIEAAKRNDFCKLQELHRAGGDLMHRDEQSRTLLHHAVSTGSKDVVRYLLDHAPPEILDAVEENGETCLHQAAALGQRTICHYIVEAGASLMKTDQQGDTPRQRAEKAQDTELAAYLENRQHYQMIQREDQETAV
The mark [1] stands for this setting: His-tagged human recombinant DGKα 0.1 nM, 50 μM ATP, 20 μM DLG.

Sequence of DGKα (P23743 whole entry): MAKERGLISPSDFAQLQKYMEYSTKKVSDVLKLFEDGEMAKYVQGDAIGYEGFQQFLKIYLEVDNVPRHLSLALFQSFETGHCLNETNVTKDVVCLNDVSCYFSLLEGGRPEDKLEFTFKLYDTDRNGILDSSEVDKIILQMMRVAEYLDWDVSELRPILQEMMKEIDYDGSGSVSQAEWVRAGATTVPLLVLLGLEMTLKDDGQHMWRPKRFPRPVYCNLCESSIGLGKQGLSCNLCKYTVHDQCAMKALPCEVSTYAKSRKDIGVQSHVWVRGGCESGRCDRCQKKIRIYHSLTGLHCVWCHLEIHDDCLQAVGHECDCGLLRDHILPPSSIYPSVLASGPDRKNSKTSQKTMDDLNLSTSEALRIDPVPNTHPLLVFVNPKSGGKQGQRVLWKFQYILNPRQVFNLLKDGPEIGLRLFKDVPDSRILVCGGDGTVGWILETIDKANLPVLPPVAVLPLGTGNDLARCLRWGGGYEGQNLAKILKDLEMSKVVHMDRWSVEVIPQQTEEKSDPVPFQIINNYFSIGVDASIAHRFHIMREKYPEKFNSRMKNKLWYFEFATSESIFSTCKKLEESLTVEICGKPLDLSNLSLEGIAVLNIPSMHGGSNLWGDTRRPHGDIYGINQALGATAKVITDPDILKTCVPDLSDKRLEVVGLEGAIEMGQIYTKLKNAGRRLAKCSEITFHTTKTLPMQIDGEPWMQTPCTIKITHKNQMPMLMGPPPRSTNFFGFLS

Take `CC[C@@H]1CN(c2nc(=O)n(C)c3c2nc(C)n3C[C@@H]2CCCO2)[C@@H](C)CN1[C@H](CC)c1ccc(C(F)(F)F)cc1` [Example 29, 6-((2S,5R)-5-ethyl-2-methyl-4-((R)-1-(4-(trifluoromethyl)phenyl)propyl)piperazin-1-yl)-3,8-dimethyl-9-(((S)-tetrahydrofuran-2-yl)methyl)-3,9-dihydro-2H-purin-2-one]: the 50% inhibitory concentration (IC50) on DGKα (setting [1]) and at DGKζ was at most 10 nM throughout.
For `CC(C)CC(c1ccc(Cl)cc1)N1C[C@H](C)N(c2nc(=O)n(C)c3c2ncn3C[C@H]2OCC[C@@H]2O)C[C@H]1C` (single isomer, unassigned) [Example 19], the IC50 on DGKα (setting [1]) and at DGKζ was at most 10 nM in each case.
As for `CC[C@@H]1CN(c2nc(=O)n(C)c3c2nc(C)n3C[C@@H]2CCCO2)[C@@H](C)CN1C(c1ccc(F)cc1)c1ccc(F)cc1` [Example 5, 6-((2S,5R)-4-(Bis(4-fluorophenyl)methyl)-5-ethyl-2-methylpiperazin-1-yl)-3,8-dimethyl-9-(((S)-tetrahydrofuran-2-yl)methyl)-3,9-dihydro-2H-purin-2-one], the IC50 at DGKα (setting [1]) and at DGKζ was at most 10 nM in each case.
For the compound `CC[C@@H]1CN(c2nc(=O)n(C)c3c2nc(C)n3C[C@@H]2CCCO2)[C@@H](C)CN1[C@@H](CC)c1ccc(Cl)cc1` [Example 24, 6-((2S,5R)-4-((S)-1-(4-Chlorophenyl)propyl)-5-ethyl-2-methylpiperazin-1-yl)-3,8-dimethyl-9-(((S)-tetrahydrofuran-2-yl)methyl)-3,9-dihydro-2H-purin-2-one], the IC50 on DGKα (setting [1]) and at DGKζ was at most 10 nM throughout.
Consider `Cc1nc2c(N3C[C@@H](C)N(C(c4ccc(F)cc4)c4ccc(F)cc4)C[C@@H]3C)cc(=O)n(C)c2n1C[C@@H]1CCCO1` [Example 11, 7-((2S,5R)-4-(Bis(4-fluorophenyl)methyl)-2,5-dimethylpiperazin-1-yl)-2,4-dimethyl-3-(((S)-tetrahydrofuran-2-yl)methyl)-3,4-dihydro-5H-imidazo[4,5-b]pyridin-5-one], for which the 50% inhibitory concentration (IC50) on DGKα (setting [1]) and at DGKζ was at most 10 nM each time.
In the case of `C[C@@H]1CN(c2nc(=O)n(C)c3c2ncn3C[C@@H]2CCCO2)[C@@H](C)CN1C(c1ccc(F)cc1)c1ccc(F)cc1` [Example 10, 6-((2S,5R)-4-(Bis(4-fluorophenyl)methyl)-2,5-dimethylpiperazin-1-yl)-3-methyl-9-(((S)-tetrahydrofuran-2-yl)methyl)-3,9-dihydro-2H-purin-2-one], the concentration for half-maximal inhibition (IC50) on DGKα (setting [1]) and at DGKζ was at most 10 nM throughout.
As to `CC[C@@H]1CN(c2nc(=O)n(C)c3c2nnn3C[C@H]2CCCO2)[C@@H](C)CN1[C@H](CC)c1ccc(C(F)(F)F)cc1` [Example 31, 7-((2S,5R)-5-ethyl-2-methyl-4-((R)-1-(4-(trifluoromethyl)phenyl)propyl)piperazin-1-yl)-4-methyl-3-(((R)-tetrahydrofuran-2-yl)methyl)-3,4-dihydro-5H-[1,2,3]triazolo[4,5-d]pyrimidin-5-one], the IC50 on DGKα (setting [1]) and at DGKζ was at most 10 nM each time.
On to `Cc1nc2c(N3C[C@@H](C)N([C@@H](c4ccc5ccc(C(F)(F)F)cc5n4)C(C)C)C[C@@H]3C)nc(=O)n(C)c2n1C[C@@H]1CCCO1` [Example 49, 6-((2S,5R)-2,5-Dimethyl-4-((R)-2-methyl-1-(7-(trifluoromethyl)quinolin-2-yl)propyl)piperazin-1-yl)-3,8-dimethyl-9-(((S)-tetrahydrofuran-2-yl)methyl)-3,9-dihydro-2H-purin-2-one], for which the IC50 on DGKα (setting [1]) and on DGKζ was at most 10 nM each time.
In the case of `CC[C@@H]1CN(c2nc(=O)n(C)c3c2nnn3C[C@H]2CCCO2)[C@@H](C)CN1[C@@H](CC)c1ccc(C(F)(F)F)cc1` [Example 30, 7-((2S,5R)-5-Ethyl-2-methyl-4-((S)-1-(4-(trifluoromethyl)phenyl)propyl)piperazin-1-yl)-4-methyl-3-(((R)-tetrahydrofuran-2-yl)methyl)-3,4-dihydro-5H-[1,2,3]triazolo[4,5-d]pyrimidin-5-one], the IC50 at DGKα (setting [1]) and on DGKζ was at most 10 nM throughout.
In the case of `Cc1nc2c(N3C[C@@H](C)N(C(c4ccc(C(F)(F)F)cc4)C4CC(F)(F)C4)C[C@@H]3C)nc(=O)n(C)c2n1C[C@H]1OCC[C@@H]1O` (single isomer, unassigned) [Example 34], the IC50 on DGKα (setting [1]) and at DGKζ was at most 10 nM each time.
In the case of `Cc1nc2c(N3C[C@@H](CO)N(C(c4ccc(C(F)(F)F)cc4)C4CC(F)(F)C4)C[C@@H]3C)nc(=O)n(C)c2n1C[C@@H]1CCCO1` (stereo partly drawn) [Example 41, 6-((2S,5S)-4-((3,3-Difluorocyclobutyl)(4-(trifluoromethyl)phenyl)methyl)-5-(hydroxymethyl)-2-methylpiperazin-1-yl)-3,8-dimethyl-9-(((S)-tetrahydrofuran-2-yl)methyl)-3,9-dihydro-2H-purin-2-one], the figures for the 50% inhibitory concentration (IC50) at DGKα (cell prints a figure instead of a class symbol (possibly a misprint of +)) and at DGKζ were 1 nM and at most 10 nM, respectively.
For `CC[C@@H]1CN(c2nc(=O)n(C)c3c2nc(C)n3C[C@H]2OCC[C@@H]2O)[C@@H](C)CN1[C@@H](CC)c1ccc(C(F)(F)F)cc1` [Example 69, 6-((2S,5R)-5-Ethyl-2-methyl-4-((S)-1-(4-(trifluoromethyl)phenyl)propyl)piperazin-1-yl)-9-(((2R,3S)-3-hydroxytetrahydrofuran-2-yl)methyl)-3,8-dimethyl-3,9-dihydro-2H-purin-2-one], the IC50 at DGKα (setting [1]) and at DGKζ was at most 10 nM each time.
Take `C[C@@H]1CN(c2nc(=O)n(C)c3c2nnn3C[C@@H]2CCCO2)[C@@H](C)CN1C(c1ccc(C(F)(F)F)cn1)c1ccc(C(F)(F)F)cn1` [Example 32, 7-((2S,5R)-4-(Bis(5-(trifluoromethyl)pyridin-2-yl)methyl)-2,5-dimethylpiperazin-1-yl)-4-methyl-3-(((S)-tetrahydrofuran-2-yl)methyl)-3,4-dihydro-5H-[1,2,3]triazolo[4,5-d]pyrimidin-5-one]: the half-inhibitory concentration (IC50) on DGKα (setting [1]) and at DGKζ was at most 10 nM throughout.
`CC[C@@H]1CN(c2nc(=O)n(C)c3c2nc(C)n3C[C@@H]2CCCO2)[C@@H](C)CN1C(c1ccc(C(F)(F)F)cc1)C1CC(F)(F)C1` (stereo partly drawn) [Example 38, 6-((2S,5R)-4-((3,3-Difluorocyclobutyl)(4-(trifluoromethyl)phenyl)methyl)-5-ethyl-2-methylpiperazin-1-yl)-3,8-dimethyl-9-(((S)-tetrahydrofuran-2-yl)methyl)-3,9-dihydro-2H-purin-2-one]: the IC50 at DGKα (setting [1]) and at DGKζ was at most 10 nM in each case.
As for `C[C@@H]1CN(c2nc(=O)n(C)c3c2cnn3C)[C@@H](C)CN1C(c1ccc(F)cc1)c1ccc(F)cc1` [Example 7, 4-((2S,5R)-4-(Bis(4-fluorophenyl)methyl)-2,5-dimethylpiperazin-1-yl)-1,7-dimethyl-1,7-dihydro-6H-pyrazolo[3,4-d]pyrimidin-6-one], the half-maximal inhibitory concentration (IC50) (as a rule, the concentration needed to halve the response being measured) was at most 10 nM on DGKα (setting [1]) and above 1000 nM on DGKζ.
On the same counts, the results for `Cc1nc2c(N3C[C@@H](C)N(C(c4ccc(C(F)(F)F)cc4)C4CC(F)(F)C4)C[C@@H]3C)nc(=O)n(C)c2n1C[C@H]1OCC[C@H]1O` (single isomer, unassigned) [Example 35] are at most 10 nM and at most 10 nM.
Taken in the same sequence, the figures for `CC[C@@H]1CN(c2nc(=O)n(C)c3c2nnn3C[C@H]2CCCO2)[C@@H](C)CN1C(c1ccc(Cl)cc1)C1CC(F)(F)C1` (stereo partly drawn) [Example 45, 7-((2S,5R)-4-((4-Chlorophenyl)(3,3-difluorocyclobutyl)methyl)-5-ethyl-2-methylpiperazin-1-yl)-4-methyl-3-(((R)-tetrahydrofuran-2-yl)methyl)-3,4-dihydro-5H-[1,2,3]triazolo[4,5-d]pyrimidin-5-one] were at most 10 nM and at most 10 nM.
Taken in the same sequence, the figures for `CC[C@@H]1CN(c2nc(=O)n(C)c3c2nnn3C[C@H]2CCCO2)[C@@H](C)CN1[C@@H](c1ccc(Cl)cc1)[C@@H]1CC1(F)F` [Example 23, 7-((2S,5R)-4-((R)-(4-chlorophenyl)((S)-2,2-difluorocyclopropyl)methyl)-5-ethyl-2-methylpiperazin-1-yl)-4-methyl-3-(((R)-tetrahydrofuran-2-yl)methyl)-3,4-dihydro-5H-[1,2,3]triazolo[4,5-d]pyrimidin-5-one] were at most 10 nM and at most 10 nM.
In the case of `Cc1nc2c(N3C[C@@H](CO)N(C(c4ccc(F)cc4)c4ccc(F)cc4)C[C@@H]3C)nc(=O)n(C)c2n1C[C@@H]1CCCO1` [Example 3, 6-((2S,5S)-4-(Bis(4-fluorophenyl)methyl)-5-(hydroxymethyl)-2-methylpiperazin-1-yl)-3,8-dimethyl-9-(((S)-tetrahydrofuran-2-yl)methyl)-3,9-dihydro-2H-purin-2-one], the IC50 at DGKα (setting [1]) and at DGKζ was at most 10 nM each time.
